Experiments:
Assay type in all cases: in vivo
Lolium perenne (LOLPE) = assay: Glasshouse herbicidal test, pre- and post-emergence, Lolium perenne; details: 250 g/h, evaluated after 13 days, five point scale; for percentage damage caused to the plant, LOLPE POST: post-emergence; for percentage damage caused to the plant, LOLPE PRE: pre-emergence
Protocol: (§1) Seeds of a variety of test species are sown in standard soil in pots (Lolium perenne (LOLPE), Setaria faberi (SETFA), Alopecurus myosuroides (ALOMY), Echinochloa crus-galli (ECHCG), Avena fatua (AVEFA)). After cultivation for one day (pre-emergence) or after 8 days cultivation (post-emergence) under controlled conditions in a glasshouse (at 24/16° C., day/night; 14 hours light; 65% humidity), the plants are sprayed with an aqueous spray solution derived from the formulation of the technical active ingredient in acetone/water (50:50) solution containing 0.5% Tween 20 (polyoxyethelyene sorbitan monolaurate, CAS RN 9005-64-5). Compounds are applied at […]. The test plants are then grown in a glasshouse under controlled conditions in a glasshouse (at 24/16° C., day/night; 14 hours light; 65% humidity) and watered twice daily. After 13 days for pre and post-emergence, the test is evaluated for the percentage damage caused to the plant. The biological activities are shown in the following table on a five point scale (5=80-100%; 4=60-79%; 3=40-59%; 2=20-39%; 1=0-19%).

[1] = system: Echinochloa crus-galli (ECHCG); assay: Glasshouse herbicidal test, pre- and post-emergence, Echinochloa crus-galli; details: 250 g/h, evaluated after 13 days, five point scale; for percentage damage caused to the plant, ECHCG POST: post-emergence; for percentage damage caused to the plant, ECHCG PRE: pre-emergence
Protocol: as §1

Avena fatua (AVEFA) = assay: Glasshouse herbicidal test, pre- and post-emergence, Avena fatua; details: 250 g/h, evaluated after 13 days, five point scale; for percentage damage caused to the plant, AVEFA POST: post-emergence; for percentage damage caused to the plant, AVEFA PRE: pre-emergence
Protocol: as §1

[2] = system: Alopecurus myosuroides (ALOMY); assay: Glasshouse herbicidal test, pre- and post-emergence, Alopecurus myosuroides; details: 250 g/h, evaluated after 13 days, five point scale; for percentage damage caused to the plant, ALOMY POST: post-emergence; for percentage damage caused to the plant, ALOMY PRE: pre-emergence
Protocol: as §1

Setaria faberi (SETFA) = assay: Glasshouse herbicidal test, pre- and post-emergence, Setaria faberi; details: 250 g/h, evaluated after 13 days, five point scale; for percentage damage caused to the plant, SETFA POST: post-emergence; for percentage damage caused to the plant, SETFA PRE: pre-emergence
Protocol: as §1

CC#Cc1cc(C)c(C2C(=O)CC3(CCN(C(=O)C(C)(F)F)CC3)CC2=O)c(C)c1 [Compound A22]
5 (5=80-100%): percentage damage caused to the plant, LOLPE POST (Lolium perenne (LOLPE)) | percentage damage caused to the plant, LOLPE PRE (Lolium perenne (LOLPE)) | percentage damage caused to the plant, ECHCG POST [1] | percentage damage caused to the plant, ECHCG PRE [1] | percentage damage caused to the plant, AVEFA POST (Avena fatua (AVEFA)) | percentage damage caused to the plant, AVEFA PRE (Avena fatua (AVEFA)) | percentage damage caused to the plant, ALOMY POST [2] | percentage damage caused to the plant, ALOMY PRE [2] | percentage damage caused to the plant, SETFA POST (Setaria faberi (SETFA)) | percentage damage caused to the plant, SETFA PRE (Setaria faberi (SETFA))

CC#Cc1cc(C)c(C2C(=O)CC3(CCN(C(=O)C(C)(C)F)CC3)CC2=O)c(C)c1 [Compound A23]
5 (5=80-100%): percentage damage caused to the plant, LOLPE POST (Lolium perenne (LOLPE)) | percentage damage caused to the plant, LOLPE PRE (Lolium perenne (LOLPE)) | percentage damage caused to the plant, ECHCG POST [1] | percentage damage caused to the plant, ECHCG PRE [1] | percentage damage caused to the plant, AVEFA POST (Avena fatua (AVEFA)) | percentage damage caused to the plant, AVEFA PRE (Avena fatua (AVEFA)) | percentage damage caused to the plant, ALOMY POST [2] | percentage damage caused to the plant, ALOMY PRE [2] | percentage damage caused to the plant, SETFA POST (Setaria faberi (SETFA)) | percentage damage caused to the plant, SETFA PRE (Setaria faberi (SETFA))

CC#Cc1cc(C)c(C2C(=O)CC3(CCN(C(=O)C(C)C(F)(F)F)CC3)CC2=O)c(C)c1 (stereo not shown) [Compound A24]
5 (5=80-100%): percentage damage caused to the plant, LOLPE POST (Lolium perenne (LOLPE)) | percentage damage caused to the plant, LOLPE PRE (Lolium perenne (LOLPE)) | percentage damage caused to the plant, ECHCG POST [1] | percentage damage caused to the plant, ECHCG PRE [1] | percentage damage caused to the plant, AVEFA POST (Avena fatua (AVEFA)) | percentage damage caused to the plant, AVEFA PRE (Avena fatua (AVEFA)) | percentage damage caused to the plant, ALOMY POST [2] | percentage damage caused to the plant, ALOMY PRE [2] | percentage damage caused to the plant, SETFA POST (Setaria faberi (SETFA)) | percentage damage caused to the plant, SETFA PRE (Setaria faberi (SETFA))

CC#Cc1cc(C)c(C2C(=O)CC3(CCN(C(=O)CC(F)(F)F)CC3)CC2=O)c(C)c1 [Compound A25]
5 (5=80-100%): percentage damage caused to the plant, LOLPE POST (Lolium perenne (LOLPE)) | percentage damage caused to the plant, LOLPE PRE (Lolium perenne (LOLPE)) | percentage damage caused to the plant, ECHCG POST [1] | percentage damage caused to the plant, ECHCG PRE [1] | percentage damage caused to the plant, AVEFA POST (Avena fatua (AVEFA)) | percentage damage caused to the plant, AVEFA PRE (Avena fatua (AVEFA)) | percentage damage caused to the plant, ALOMY POST [2] | percentage damage caused to the plant, ALOMY PRE [2] | percentage damage caused to the plant, SETFA POST (Setaria faberi (SETFA)) | percentage damage caused to the plant, SETFA PRE (Setaria faberi (SETFA))

CC#Cc1cc(C)c(C2C(=O)CC3(CCN(C(=O)C(F)(F)C(F)(F)F)CC3)CC2=O)c(C)c1 [Compound A26]
5 (5=80-100%): percentage damage caused to the plant, LOLPE POST (Lolium perenne (LOLPE)) | percentage damage caused to the plant, LOLPE PRE (Lolium perenne (LOLPE)) | percentage damage caused to the plant, ECHCG POST [1] | percentage damage caused to the plant, ECHCG PRE [1] | percentage damage caused to the plant, AVEFA POST (Avena fatua (AVEFA)) | percentage damage caused to the plant, AVEFA PRE (Avena fatua (AVEFA)) | percentage damage caused to the plant, ALOMY POST [2] | percentage damage caused to the plant, ALOMY PRE [2] | percentage damage caused to the plant, SETFA POST (Setaria faberi (SETFA)) | percentage damage caused to the plant, SETFA PRE (Setaria faberi (SETFA))

CC#Cc1cc(C)c(C2C(=O)CC3(CCN(C(=O)C(C)(Cl)Cl)CC3)CC2=O)c(C)c1 [Compound A27]
5 (5=80-100%): percentage damage caused to the plant, LOLPE POST (Lolium perenne (LOLPE)) | percentage damage caused to the plant, LOLPE PRE (Lolium perenne (LOLPE)) | percentage damage caused to the plant, ECHCG POST [1] | percentage damage caused to the plant, ECHCG PRE [1] | percentage damage caused to the plant, AVEFA POST (Avena fatua (AVEFA)) | percentage damage caused to the plant, AVEFA PRE (Avena fatua (AVEFA)) | percentage damage caused to the plant, ALOMY POST [2] | percentage damage caused to the plant, ALOMY PRE [2] | percentage damage caused to the plant, SETFA POST (Setaria faberi (SETFA)) | percentage damage caused to the plant, SETFA PRE (Setaria faberi (SETFA))

CC#Cc1cc(C)c(C2C(=O)CC3(CCN(C(=O)C(Cl)Cl)CC3)CC2=O)c(C)c1 [Compound A28]
5 (5=80-100%): percentage damage caused to the plant, LOLPE POST (Lolium perenne (LOLPE)) | percentage damage caused to the plant, LOLPE PRE (Lolium perenne (LOLPE)) | percentage damage caused to the plant, ECHCG POST [1] | percentage damage caused to the plant, ECHCG PRE [1] | percentage damage caused to the plant, AVEFA POST (Avena fatua (AVEFA)) | percentage damage caused to the plant, AVEFA PRE (Avena fatua (AVEFA)) | percentage damage caused to the plant, ALOMY POST [2] | percentage damage caused to the plant, ALOMY PRE [2] | percentage damage caused to the plant, SETFA POST (Setaria faberi (SETFA)) | percentage damage caused to the plant, SETFA PRE (Setaria faberi (SETFA))
